According to ChEMBL document CHEMBL2429719, “Indolo[3,2-a]carbazoles from a deep-water sponge of the genus Asteropus” (2013):
Converted amounts (≈) assume the structure as drawn. The source made the active and inactive calls. The rule behind the calls is not given here.

What was measured:
[1] = tested on: NCI/ADR-RES; experiment: Cytotoxicity against human NCI/ADR-RES cells at 5 ug/ml after 2 to 3 days by MTT assay; assay type: functional, cell-based
[2] = tested on: PANC-1; experiment: Cytotoxicity against human PANC1 cells at 5 ug/ml after 2 to 3 days by MTT assay; assay type: functional, cell-based
[3] = tested on: Staphylococcus aureus; experiment: Antimicrobial activity against methicillin-resistant Staphylococcus aureus by broth microdilution method; assay type: functional
[4] = tested on: Candida albicans; experiment: Antimicrobial activity against Candida albicans by broth microdilution method; assay type: functional
[5] = tested on: Staphylococcus aureus; experiment: Antimicrobial activity against methicillin-resistant Staphylococcus aureus up to 50 ug/ml by broth microdilution method; assay type: functional, organism-based
[6] = tested on: Candida albicans; experiment: Antimicrobial activity against Candida albicans up to 50 ug/ml by broth microdilution method; assay type: functional, organism-based

SMILES | Activity [1] | Activity [2] | MIC [3] | MIC [4] | growth inhibition (GI) [5] | growth inhibition (GI) [6]
Oc1cc2[nH]c3ccc4c5ccc(Br)cc5[nH]c4c3c2cc1O | inactive | inactive | 50 µg/mL (≈ 136 µM) | 25 µg/mL (≈ 68.1 µM) | – | –
O=S(=O)(O)Oc1cc2[nH]c3ccc4c5ccc(Br)cc5[nH]c4c3c2cc1O | inactive | inactive | – | – | inactive | inactive
